From PubChem BioAssay (NCI)
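Cultured in 96-well plates, cells were exposed to test compound for 48 hours across five concentrations. GI50 = concentration required for 50% inhibition of growth. TGI is the concentration that stops growth completely.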

Columns and labels:
Test in all cases: NCI tumour cell line growth inhibition, 48 h
[1] = tested on: KM12 colon
[2] = tested on: SK-MEL-28 melanoma
[3] = tested on: CAKI-1 renal
[4] = tested on: NCI/ADR-RES ovarian
[5] = tested on: MDA-MB-435
[6] = tested on: M14 melanoma
[7] = tested on: NCI-H23 lung
[8] = tested on: CCRF-CEM leukemia
[9] = tested on: SF-539 CNS
[10] = tested on: TK-10 renal
[11] = tested on: LOX IMVI melanoma
[12] = tested on: HT29 colon
[13] = tested on: OVCAR-3 ovarian
[14] = tested on: BT-549 breast
[15] = tested on: MDA-N

| Compound | TGI [1] | TGI [2] | TGI [3] | TGI [4] | TGI [5] | TGI [6] | TGI [7] | TGI [8] | TGI [9] | TGI [10] | TGI [11] | TGI [12] | TGI [13] | TGI [14] | TGI [15] | GI50 [2] | GI50 [4] | GI50 [6] | GI50 [8] | GI50 [9] |
| --- | --- | --- | --- | --- | --- | --- | --- | --- | --- | --- | --- | --- | --- | --- | --- | --- | --- | --- | --- | --- |
| Cc1ccc(-n2c(N)c(C#N)c3[nH]nc(N)c3c2=O)cc1 | > 100 µM | > 100 µM | > 100 µM | > 100 µM | > 100 µM | > 100 µM | > 100 µM | > 100 µM | > 100 µM | > 100 µM | > 100 µM | > 100 µM |  |  |  |  |  |  |  |  |
| CN=C1CC2c3cc(OC)c(OC)cc3CCN2C2=C1C(=O)CC(C)(C)C2 (stereo not given) | > 100 µM | > 100 µM | > 100 µM |  |  |  | > 100 µM | > 100 µM | > 100 µM | > 100 µM | > 100 µM | > 100 µM | > 100 µM |  |  |  |  |  |  |  |
| CC1CN(C(=O)CN2CCC(CCCCN(C)C)CC2)c2ccccc2NC1=O (stereo not given) |  | > 100 µM | > 100 µM |  |  | > 100 µM | > 100 µM | > 100 µM |  |  | > 100 µM | > 100 µM | > 100 µM |  |  |  |  |  |  |  |
| CN1CCOC(c2ccccc2)O1 (stereo not given) | > 100 µM | > 100 µM | > 100 µM |  |  | > 100 µM | > 100 µM | > 100 µM | > 100 µM | > 100 µM | > 100 µM | > 100 µM | > 100 µM |  |  |  |  |  |  |  |
| N#C/C1=C(\N)CCSSSC1 | > 100 µM | > 100 µM | > 100 µM |  |  | 95.9 µM | > 100 µM | > 100 µM | > 100 µM | > 100 µM | > 100 µM | > 100 µM | > 100 µM |  |  |  |  |  |  |  |
| CN1C2CCC1CC(=CCOC(c1ccc(F)cc1)c1ccc(F)cc1)C2 | 29.6 µM | 47.9 µM | 30.6 µM | 40.1 µM | 25.7 µM | 31.9 µM | 32 µM | > 100 µM | 31.9 µM | 28.5 µM | 31.5 µM | 19.9 µM | 31.3 µM | 30.1 µM |  |  |  |  |  |  |
| COc1ccc(P2(=S)OC(C)(C)C(C)(C)O2)cc1 | > 100 µM | > 100 µM | > 100 µM | > 100 µM | > 100 µM | > 100 µM | > 100 µM | > 100 µM | > 100 µM | > 100 µM | > 100 µM | > 100 µM | > 100 µM |  | > 100 µM |  |  |  |  |  |
| O=Cc1[nH]c(=O)[nH]c(=O)c1C(=O)O | > 100 µM | > 100 µM | > 100 µM | > 100 µM | > 100 µM | > 100 µM | > 100 µM | > 100 µM | > 100 µM | > 100 µM | > 100 µM | > 100 µM | > 100 µM |  | > 100 µM |  |  |  |  |  |
| COc1ccc(-[n+]2nc(S(=O)(=O)O)c(/C=C/c3ccc(N(C)C)cc3)cc2C#N)cc1 | > 100 µM | > 100 µM | > 100 µM | > 100 µM | > 100 µM | > 100 µM | > 100 µM | > 100 µM | > 100 µM | > 100 µM | > 100 µM | > 100 µM | > 100 µM | > 100 µM |  |  |  |  |  |  |
| CN(C)C1(N(C)C)Oc2c(c(=O)n(C)c(=O)n2C)C(c2ccccc2)C1(F)F (stereo not given) | > 100 µM | > 100 µM | > 100 µM | > 100 µM | > 100 µM | > 100 µM | > 100 µM | > 100 µM |  | > 100 µM | > 100 µM |  | > 100 µM | > 100 µM |  |  |  |  |  |  |
| COC1(OC)C(N(C)C)=C(Cl)C(=O)/C1=C/C=O |  | > 100 µM | > 100 µM |  |  | > 100 µM | > 100 µM | 98.2 µM |  | > 100 µM | > 100 µM | > 100 µM | > 100 µM |  |  |  |  |  |  |  |
| O=C(O)[C@@H]1CCS(=O)(=O)N1 | > 100 µM | > 100 µM | > 100 µM | > 100 µM | > 100 µM | > 100 µM | > 100 µM | > 100 µM | > 100 µM | > 100 µM | > 100 µM | > 100 µM | > 100 µM |  | > 100 µM |  |  |  |  |  |
| CC1CCC(=O)C(C(=O)CC2CC(=O)N(C)C(=O)C2)C1 (stereo not given) | > 100 µM | > 100 µM | > 100 µM | > 100 µM | > 100 µM | > 100 µM | > 100 µM | > 100 µM | > 100 µM | > 100 µM | > 100 µM | > 100 µM | > 100 µM | > 100 µM |  |  |  |  |  |  |
| N#Cc1c2ccccc2cn1-c1ccc(F)cc1 | 97.4 µM | > 100 µM | > 100 µM |  |  | > 100 µM | 56.2 µM | > 100 µM | > 100 µM | > 100 µM |  | > 100 µM | 67.9 µM |  |  |  |  |  |  |  |
| Oc1[nH]c2ccccc2c1N=NC(=S)Nc1cccc(Cl)c1 | 58.8 µM | > 100 µM | 44.9 µM | 8 µM | 99.4 µM | 24.7 µM | 52.3 µM | 31 µM | 22.4 µM | 84.8 µM | 33.4 µM | 28.4 µM | > 100 µM |  | > 100 µM |  |  |  |  |  |
| CSc1ncnc2c1ncn2CCC(=O)OC(C)(C)C | > 100 µM | > 100 µM | > 100 µM | > 100 µM | > 100 µM | > 100 µM | > 100 µM | > 100 µM | > 100 µM | > 100 µM | > 100 µM | > 100 µM | > 100 µM |  | > 100 µM |  |  |  |  |  |
| Cc1nc2c(nc1C)-c1[nH]c3c(c1C(=O)C2=O)CCCC3=O | 4.43 µM | 3.16 µM |  | 6.47 µM | 1.48 µM | 3.4 µM | 5.63 µM | 5.16 µM | 3.12 µM | 34.8 µM | 2.87 µM | 16.2 µM | 2.07 µM |  | 1.9 µM |  |  |  |  |  |
| O=C(Nc1nc(C23CC4CC(CC(C4)C2)C3)cs1)c1cc2ccc(O)cc2oc1=O | 29.9 µM | 47 µM | > 100 µM | 48.5 µM | 31.8 µM |  | 38.4 µM | 68.1 µM | 86.6 µM | > 100 µM | 22.2 µM | 27.4 µM | 60.5 µM |  | 41.3 µM |  |  |  |  |  |
| CC1CCC(C(C)C)C(OC(=O)NCn2cc(-c3ccccc3)nn2)C1 (stereo not given) | > 100 µM | > 100 µM | > 100 µM | > 100 µM |  | > 100 µM | > 100 µM | > 100 µM | > 100 µM | > 100 µM | > 100 µM | > 100 µM |  | > 100 µM |  |  |  |  |  |  |
| CCOc1ccccc1NC(=O)C(=O)CC(=O)c1sc(Nc2nnc(-c3ccc(Cl)c(Cl)c3)o2)nc1C | > 100 µM | > 100 µM | > 100 µM |  |  | > 100 µM | > 100 µM | > 100 µM | > 100 µM | > 100 µM | > 100 µM | > 100 µM | > 100 µM |  |  |  |  |  |  |  |
| S=C(S)NCNC(=S)S.[Zn+2] | > 100 µM | > 100 µM | > 100 µM | > 100 µM | > 100 µM | > 100 µM | > 100 µM | > 100 µM | > 100 µM | > 100 µM | > 100 µM | > 100 µM | > 100 µM |  | > 100 µM |  |  |  |  |  |
| CC(CO)(CO)N1C(=O)C2C3C=CC(C3)C2C1=O (stereo not given) | > 100 µM | > 100 µM | > 100 µM | > 100 µM | > 100 µM | > 100 µM | > 100 µM | > 100 µM | > 100 µM | > 100 µM | > 100 µM | > 100 µM | > 100 µM |  | > 100 µM |  |  |  |  |  |
| O=c1cc(-c2cccc3ccccc23)[nH]c2ncccc12 |  | > 100 µM | > 100 µM | > 100 µM | 0.00404 µM | > 100 µM | > 100 µM | > 100 µM |  |  |  | 0.0608 µM |  | > 100 µM |  | 0.0158 µM | 0.0173 µM | 0.0275 µM | 0.0201 µM | 0.0159 µM |
| Cn1c(=O)n(C2(C)C[Se]C2)c2ccccc21 | > 100 µM | > 100 µM | > 100 µM |  |  | > 100 µM | > 100 µM | > 100 µM | > 100 µM | > 100 µM | > 100 µM | > 100 µM |  |  |  |  |  |  |  |  |
| S=c1sc2c(Cl)nc(Cl)nc2n1-c1ccccc1 | > 100 µM | 29 µM | > 100 µM |  |  | 43 µM | 32.9 µM | 75.8 µM | > 100 µM | > 100 µM | > 100 µM | > 100 µM | 60.4 µM |  |  |  |  |  |  |  |
| CN(C)CCC(=O)c1ccccc1 | > 61.4 µM | > 67.4 µM | 40.5 µM |  |  | 52.6 µM | > 74 µM | 62.4 µM | > 70.3 µM | > 68.4 µM | 57.8 µM | > 67.3 µM | > 73.4 µM |  |  |  |  |  |  |  |
| COc1ccc(/C=C2\N=C(SC)N(CN3CCOCC3)C2=O)cc1 | > 100 µM | > 100 µM |  | > 100 µM | > 100 µM | > 100 µM | > 100 µM | > 100 µM |  | > 100 µM | > 100 µM | > 100 µM | > 100 µM |  | > 100 µM |  |  |  |  |  |
| CC(=O)Oc1ccc2c(C)cc(=O)oc2c1OC(C)=O | > 100 µM | > 100 µM |  | 78.6 µM | > 100 µM | > 100 µM | > 100 µM | 83.7 µM | > 100 µM | 84.9 µM | > 100 µM | > 100 µM | > 100 µM |  | > 100 µM |  |  |  |  |  |
| COc1ccc(S(=O)(=O)c2nnc(S(=O)(=O)Cc3ccccc3)s2)cc1 | > 100 µM | 40.3 µM | 39.3 µM | > 100 µM | 71.8 µM | 33.1 µM | 62.3 µM |  | 50.1 µM | 39.6 µM |  | 43.8 µM | > 100 µM | 49.8 µM |  |  |  |  |  |  |
